Laboratory results taken from patent US10214492B2, “Heterocyclic inhibitors of MCT4” (Vettore, LLC, priority 2016, dated 2019).

Experiments:
[1] = Pharmacokinetic assay in rat (IV 3 mg/kg, PO 10 mg/kg); format: in vivo; details: Male Sprague-Dawley rat; for Rat F: oral bioavailability; for Rat F / half-life: PO 10 mg/kg; for half-life / Vd: plasma; for half-life: read-out: Rat t1/2 (converted); for Vd: volume of distribution, read-out: Rat Vss
Source text: (§1) The following are assays that may be used to evaluate the pharmacokinetic properties of Formula (I) in mouse or rat. The assays follow a common procedure recited below.
(§2) 1. […] For PO (oral gavage), DMSO/PEG400 (10:90). Formulations freshly prepared on the day of dosing or prior to dosing. Storage at room temperature.
(§3) 2. Test Species: For Mouse: Male CD1 strain, approximately 6-8 weeks in age, approximately 20-30 g. For Rat: Male Sprague-Dawley strain, approximately 6-8 weeks in age, approximately 200-300 g.
(§4) 3. Dose Level: For IV, 3 mg/kg. For PO, 10 mg/kg.
(§5) 4. Number of animals: 3 per assay.
(§6) 5. PK time points: For IV (plasma): 5 min, 15 min, 1, 2, 4, 6, 8, 24 h post dose. For PO (plasma): 15 min, 30 min, 1, 2, 4, 6, 8, 24 h post dose.
(§7) 6. Blood Sample Collection and Processing. Blood was collected (˜0.2 mL per time point) from jugular vein. Blood of each sample was transferred into plastic micro centrifuge tubes containing anticoagulant of EDTA-K2. Blood samples were centrifuged at 2,000 g for 5 minutes at 4° C. to obtain plasma.
(§8) 7. Samples Analysis: Plasma samples were analyzed using LC/MS/MS method, and pharmacokinetic parameters (half-life: t1/2; oral bioavailability: F; volume of distribution: Vss).

[2] = Pharmacokinetic assay in mouse (IV 3 mg/kg, PO 10 mg/kg); format: in vivo; details: Male CD1 mouse; for Mouse F: oral bioavailability; for Mouse F / half-life: PO 10 mg/kg; for half-life / Vd: plasma; for half-life: read-out: Mouse t1/2 (converted); for Vd: volume of distribution, read-out: Mouse Vss
Source text: as §1, §2, §3, §4, §5, §6, §7, §8

[3] = Adjuvant-induced arthritis model in rat: Mechanical Allodynia test (MA, Von Frey); format: in vivo; details: SD rat, CFA-induced arthritis; PO 3 days post CFA; compared to Dexamethasone
[4] = Metabolic stability in human liver microsomes (in vitro t1/2); format: in vitro ADME; details: for half-life at 2 µM: read-out: Human microsome t1/2, min; for Human microsome % 60 min: human liver microsomes
How it was run: (§9)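 Liver microsomes (0.5 mg/mL final) incubated with test compound at 2 μM final plus NADPH; samples taken at 0, 15, 30, 45 and 60 min. Parent remaining quantified by LC-MS/MS; k from ln(% remaining) vs time regression, in vitro t1/2 = −0.693/k.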

[5] = Metabolic stability in mouse liver microsomes (in vitro t1/2); format: in vitro ADME; details: for half-life at 2 µM / Mouse microsome t1/2, min: mouse liver microsomes 0.5 mg/mL, 2 μM compound; for half-life at 2 µM: read-out: Mouse microsome t1/2, min; for Mouse microsome % 60 min: mouse liver microsomes
How it was run: as §9

[6] = Adjuvant-induced arthritis model in rat: Difference of Weight Bearing test (DWB); format: in vivo; details: SD rat, CFA-induced arthritis; PO 3 days post CFA; compared to Dexamethasone
[7] = Metabolic stability in rat liver microsomes (in vitro t1/2); format: in vitro ADME; details: for half-life at 2 µM: read-out: Rat microsome t1/2, min; for Rat microsome % 60 min: rat liver microsomes
How it was run: as §9

[8] = biological target: MCT1 (Homo sapiens (Human), UniProt P53985); assay: Assay 4: MCT1-mediated lactate transport in BT20 breast cancer cells; format: cell-based; details: Table 27
How it was run: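 BT20 cells loaded with BCECF-AM (30 mM DMSO stock) for 5 min at 37° C, washed and resuspended in Tyrode's Solution pH 7.4. Lactate uptake tracked via BCECF intracellular pH signal after adding 10 mM L-lactate.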

[9] = biological target: MCT4 (Homo sapiens (Human), UniProt O15427); assay: Assay 3: MCT4-mediated lactate transport in MDA-MB-231 breast cancer cells; format: cell-based; details: MDA-MB-231 cells; lactate transport
How it was run: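 MDA-MB-231 cells loaded with BCECF-AM, 5 min at 37° C, washed and resuspended in Tyrode's Solution, pH 7.4. MCT4 lactate/proton symport followed as the intracellular pH change reported by BCECF fluorescence.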

[10] = human liver microsomes 0.5 mg/mL, 2 μM compound
[11] = rat liver microsomes 0.5 mg/mL, 2 μM compound

Chain of MCT4 (O15427 whole entry, looked up): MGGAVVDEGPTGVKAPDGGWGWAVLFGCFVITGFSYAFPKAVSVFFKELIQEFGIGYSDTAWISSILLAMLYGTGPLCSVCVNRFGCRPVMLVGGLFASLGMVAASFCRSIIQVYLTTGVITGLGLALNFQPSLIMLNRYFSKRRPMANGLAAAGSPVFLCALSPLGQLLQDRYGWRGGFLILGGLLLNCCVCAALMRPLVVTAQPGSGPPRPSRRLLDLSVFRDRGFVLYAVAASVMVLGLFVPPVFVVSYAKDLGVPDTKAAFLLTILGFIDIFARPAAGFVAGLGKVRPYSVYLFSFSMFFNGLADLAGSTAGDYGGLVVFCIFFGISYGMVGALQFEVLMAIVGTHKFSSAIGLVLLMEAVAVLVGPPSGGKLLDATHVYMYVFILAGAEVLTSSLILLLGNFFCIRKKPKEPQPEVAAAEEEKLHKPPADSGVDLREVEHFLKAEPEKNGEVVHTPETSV
Chain of MCT4 (P35613 whole entry partner, looked up): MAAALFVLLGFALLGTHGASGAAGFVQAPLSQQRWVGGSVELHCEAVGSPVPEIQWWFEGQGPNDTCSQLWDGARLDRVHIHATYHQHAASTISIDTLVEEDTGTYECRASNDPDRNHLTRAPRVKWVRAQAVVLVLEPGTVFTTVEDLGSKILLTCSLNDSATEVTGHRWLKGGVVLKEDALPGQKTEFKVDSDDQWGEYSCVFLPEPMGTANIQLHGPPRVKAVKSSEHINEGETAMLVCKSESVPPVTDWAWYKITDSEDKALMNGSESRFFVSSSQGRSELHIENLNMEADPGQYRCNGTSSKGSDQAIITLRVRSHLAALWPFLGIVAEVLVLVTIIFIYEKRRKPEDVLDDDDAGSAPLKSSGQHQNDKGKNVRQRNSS
Chain of MCT1 (P53985 whole entry): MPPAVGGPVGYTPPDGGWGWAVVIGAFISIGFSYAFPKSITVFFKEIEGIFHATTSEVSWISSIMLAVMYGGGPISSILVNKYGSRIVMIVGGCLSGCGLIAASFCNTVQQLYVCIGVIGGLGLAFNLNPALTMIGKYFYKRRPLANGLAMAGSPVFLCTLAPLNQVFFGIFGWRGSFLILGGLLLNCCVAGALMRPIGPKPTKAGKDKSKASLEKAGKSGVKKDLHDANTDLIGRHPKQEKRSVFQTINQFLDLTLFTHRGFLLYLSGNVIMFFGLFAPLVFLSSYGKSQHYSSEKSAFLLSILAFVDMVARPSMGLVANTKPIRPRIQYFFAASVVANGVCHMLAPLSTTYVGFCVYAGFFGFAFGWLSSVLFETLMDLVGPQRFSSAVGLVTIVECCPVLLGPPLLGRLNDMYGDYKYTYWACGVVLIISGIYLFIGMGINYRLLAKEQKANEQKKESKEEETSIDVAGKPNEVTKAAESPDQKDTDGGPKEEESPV
Chain of MCT1 (P35613 140-385 partner): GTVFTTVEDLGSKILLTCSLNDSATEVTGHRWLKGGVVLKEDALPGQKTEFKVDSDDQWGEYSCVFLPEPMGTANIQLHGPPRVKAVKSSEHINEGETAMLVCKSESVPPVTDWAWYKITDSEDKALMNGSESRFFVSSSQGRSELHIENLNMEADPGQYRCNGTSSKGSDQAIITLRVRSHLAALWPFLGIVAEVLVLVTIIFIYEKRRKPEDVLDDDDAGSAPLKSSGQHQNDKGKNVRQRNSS

| Structure (SMILES) | Rat F [1] [%] | half-life [1] [h] | Vd [1] [L/kg] | Mouse F [2] [%] | half-life [2] [h] | Vd [2] [L/kg] | half-life at 2 µM [4, 10] [h] | Human microsome % 60 min [4] [%] | half-life at 2 µM [5] [h] | Mouse microsome % 60 min [5] [%] | half-life at 2 µM [7, 11] [h] | Rat microsome % 60 min [7] [%] | IC50 [8] [nM] | IC50 [9] [nM] | Mouse microsome t1/2, min [5] | Rat microsome t1/2, min [7, 11] | Human microsome t1/2, min [4, 10] | Mechanical Allodynia (Von Frey), Minimal Efficacious Dose [3] [mg/kg] | Difference in Weight Bearing, Minimal Efficacious Dose [6] [mg/kg] |
| --- | --- | --- | --- | --- | --- | --- | --- | --- | --- | --- | --- | --- | --- | --- | --- | --- | --- | --- | --- |
| CC(C)(OCc1cc(-c2cccc(OC3CC3)c2)n(-c2ccccc2Cl)n1)C(=O)O [Example 110, 2-([1-(2-Chlorophenyl)-5-(3-cyclo-propoxyphenyl)-1H-pyrazol-3-yl)methoxy)-2-methylpropanoic acid] | 84 | 4.7 | 0.34 | 100 | 26.7 | 0.81 | 39.6 | 99 | 3.72 | 86 | 9.15 | 94 | 30000 | 20 |  |  |  | 10 | 10 |
| CC(C)COc1cccc(-c2cc(COC(C)(C)C(=O)O)nn2-c2cccc3cnn(C)c23)c1 [Example 170, 2-methyl-2-([1-(1-methyl-1H-indazol-7-yl)-5-[3-(2-methylpropoxy)phenyl]-1H-pyrazol-3-yl]methoxy]propanoic acid] | 18 | 2.4 | 1.1 | 100 | 2.6 | 2 | 7.85 | 87 |  | 99 |  | 95 | 32000 | 2 | ∞ | ∞ |  | 3 | 3 |
| CC(C)(OCc1cc(-c2cccc(OC3CC3)c2)n(-c2ccccc2N2CCC2)n1)C(=O)O [Example 232, 2-([1-[2-(Azetidin-1-yl)phenyl]-5-(3-cyclo-propoxyphenyl)-1H-pyrazol-3-yl]methoxy)-2-methylpropanoic acid] | 52 | 2.6 | 0.15 | 56 | 3.1 | 0.21 | 1.62 | 65 | 1.22 | 59 | 1.17 | 50 | 29000 | 2.1 |  |  |  | 1 | 1 |
| CC[C@@](C)(OCc1cc(-c2cccc(OC3CC3)c2)n(-c2ccccc2N2CCC2)n1)C(=O)O [Example 266] | 100 | 2.7 | 0.23 | 100 | 3.8 | 0.36 |  |  |  |  |  |  | 64000 | 0.36 |  |  |  | 3 | 3 |
| CCCn1ncc2ccc(-c3cc(CO[C@](C)(CC)C(=O)O)nn3-c3ccccc3N3CCC3)cc21 [Example 267, (2R)-2-([1-(2-(azetidin-1-yl)phenyl]-5-(1-propyl-1H-indazol-6-yl)-1H-pyrazol-3-yl]methoxy)-2-methylbutanoic acid] | 54 | 2.6 | 7.7 | 64 | 3.3 | 3.9 |  |  |  |  |  |  | 11000 | 0.57 |  |  |  | 3 | 3 |

Continued, in another order:

| Rat F [1] [%] | half-life [1] [h] | Vd [1] [L/kg] | Mouse F [2] [%] | half-life [2] [h] | Vd [2] [L/kg] | half-life at 2 µM [4, 10] [h] | Human microsome % 60 min [4] [%] | half-life at 2 µM [5] [h] | Mouse microsome % 60 min [5] [%] | half-life at 2 µM [7, 11] [h] | Rat microsome % 60 min [7] [%] | IC50 [8] [nM] | IC50 [9] [nM] | Mouse microsome t1/2, min [5] | Rat microsome t1/2, min [7, 11] | Human microsome t1/2, min [4, 10] | Structure (SMILES) | Mechanical Allodynia (Von Frey), Minimal Efficacious Dose [3] [mg/kg] | Difference in Weight Bearing, Minimal Efficacious Dose [6] [mg/kg] |
| --- | --- | --- | --- | --- | --- | --- | --- | --- | --- | --- | --- | --- | --- | --- | --- | --- | --- | --- | --- |
| 64 | 3.8 | 1.3 | 100 | 5.4 | 0.79 | 4.08 | 82 | 21.7 | 95 |  |  |  |  |  |  |  | COc1cccc(-c2cc(COC(C)(C)C(=O)O)nn2Cc2ccccc2Cl)c1 [Example 14, 2-([1-[(2-Chlorophenyl)methyl]-5-(3-methoxyphenyl)1H-pyrazol-3-yl]methoxy)-2-methylpropanoic acid] | 30 | 30 |
| 43 | 3.6 | 1.2 | 89 | 4.9 | 9.9 | 5.68 | 90 |  | 103 | 28.6 | 98 | 25000 | 2.8 | ∞ |  |  | CCn1ncc2ccc(-c3cc(COC(C)(C)C(=O)O)nn3Cc3ccccc3Cl)cc21 [Example 150, 2-([1-[(2-Chlorophenyl)methyl]-5-(1-ethyl-1H-indazol-6-yl)-1H-pyrazol-3-yl]-methoxy)-2-methylpropanoic Acid] | 10 | 10 |
| 29 | 2.8 | 0.68 | 100 | 6.9 | 1.7 |  | 105 | 17.3 | 102 | 4.87 | 86 | 33000 | 0.54 |  |  | ∞ | CCn1ncc2ccc(-c3cc(CO[C@](C)(CC)C(=O)O)nn3Cc3ccccc3Cl)cc21 [Example 220, (2R)-2-([1-[(2-chlorophenyl)methyl]-5-(1-ethyl-1H-indazol-6-yl)-1H-pyrazol-3-yl]methoxy)-2-methylbutanoic acid] | 3 | 3 |
| 100 | 2.7 | 1 | 100 | 4.2 | 1.9 | 1.72 | 64 | 3.27 | 81 | 1.82 | 69 | 42000 | 1.9 |  |  |  | CCn1ncc2ccc(-c3cc(COC(C)(C)C(=O)O)nn3-c3ccccc3N3CCCC3)cc21 [Example 229] | 3 | 3 |
| 57 | 2.2 | 0.76 | 77 | 2.7 | 0.77 |  |  |  |  |  |  | 36000 | 0.3 |  |  |  | CCn1ncc2ccc(-c3cc(CO[C@](C)(CC)C(=O)O)nn3-c3ccccc3N3CCCC3)cc21 [Example 268, (2R)-2-([5-(1-ethyl-1H-indazol-6-yl)-1-[2-(pyrrolidin-1-yl)phenyl)-1H-pyrazol-3-yl]methoxy)-2-methylbutanoic acid] | 1 | 1 |
